Measurements from patent publication US10941143B2, “Imidazo [1,5-a]pyridine compounds and their use” (Alterity Therapeutics Limited, priority 2019, dated 2021).

Test system: human neuroblastoma line BE(2)-M17 (M17) cells
Assay: Measurement of Fe efflux from cells
Assay type: cell-based
Conditions: M17 cells pre-loaded with 57Fe, compound 20 μM for 2 h, percentage increase of Fe in media relative to media without compound, read-out: % Fe Efflux Range
Method: Method I: Measurement of Fe Efflux from Cells
Compounds of the current invention were assessed for their ability to efflux iron (Fe) from a cell using the following protocol.
The human neuroblastoma line BE(2)-M17 (M17) cell cultures were acquired from Sigma Aldrich (Catalogue #: 95011816). M17 Cells were maintained in Opti-MEM reduced serum media supplemented with 10% fetal bovine serum (Bovogen, SFBSF) and passaged twice weekly. Cells were cultured at 37° C. in the presence of 5% CO2. Culture supplies were sourced from Thermo Fisher unless otherwise stated.
A solution of ^57Fe cold isotope was prepared by dissolving ^57Fe metal (>95% enrichment, Trace Sciences International) in concentrated HCl to give a final concentration of 573 mM. From this master solution, a 10 mM working solution was prepared in sterile water. The working solution was used within two months of preparation.
M17 cells were loaded with iron initially by seeding into 48-well plates at a density of 0.15×10^6 cells per well in 0.5 mL media. After 48 h, old media was discarded. Fresh media was supplemented with 20 μM ^57Fe isotope, from the 10 mM ^57Fe working solution. Cells received 0.2 mL of this ^57Fe enriched media and were returned to the incubator for 20 h. The ability of experimental compounds to efflux iron was determined by the dissolution of compounds in DMSO and diluted in Hanks' Balanced Salt Solution (HBSS) for treatment of M17 cells. After ^57Fe incubation, cells were rinsed twice with HBSS and treated with 0.15 mL trial compound for 2 h at a concentration of 20 μM. All assays included a relevant vehicle (0.4%-0.8% DMSO) as well as a positive control (20 μM). Following the treatment period, 0.1 mL of media was collected from cells and the extracellular ^57Fe content was analysed via inductively coupled mass spectrometry (ICP-MS, Agilent 7700x series instrument).
To perform this protocol the following supplies were purchased from Sigma Aldrich: anhydrous dimethyl sulfoxide (DMSO, Catalogue #: 276855), Hanks' Balanced Salt Solution supplemented with 20 mM HEPES and 4.2 mM Sodium Bicarbonate (HBSS, pH: 7.4, Catalogue #: H1387).
After 2 h the Fe levels in the media were measured and the increase determined as a percentage increase relative to the cell media in the absence of the compound.

SMILES | activation at 20 µM
COc1cccnc1-c1nc(-c2ccccc2O)n2ccccc12 [Compound 3, 2-(1-(3-Methoxypyridin-2-yl)imidazo[1,5-a]pyridin-3-yl)phenol] | 30 to 100%
Oc1ccccc1-c1nc(-c2ncccc2O)c2ccccn12 [Compound 4, 2-(3-(2-Hydroxyphenyl)imidazo[1,5-a]pyridin-1-yl)pyridin-3-ol] | > 150%
Oc1ccc(Br)cc1-c1nc(-c2ccccc2)n2ccccc12 [Compound 6] | < 30%
Oc1ccccc1-c1nc(-c2cc(Cl)cc(Cl)c2O)n2ccccc12 [Compound 7] | < 30%
Oc1ccccc1-c1nc(-c2cccc(F)c2O)n2ccccc12 [Compound 10, 2-Fluoro-6-(1-(2-hydroxyphenyl)imidazo[1,5-a]pyridin-3-yl)phenol] | 30 to 100%
N#Cc1ccccc1-c1nc(-c2ccccc2O)c2ccccn12 [Compound 16, 2-(1-(2-Hydroxyphenyl)imidazo[1,5-a]pyridin-3-yl)benzonitrile] | < 30%
Cc1ccc(O)c(-c2nc(-c3ccccc3O)c3ccccn23)c1 [Compound 17] | < 30%
Oc1ccccc1-c1nc(-c2c(O)cccc2F)n2ccccc12 [Compound 18, 3-Fluoro-2-(1-(2-hydroxyphenyl)imidazo[1,5-a]pyridin-3-yl)phenol] | 30 to 100%
COC(=O)c1ccccc1-c1nc(-c2ccccc2O)c2ccccn12 [Compound 20] | < 30%
Oc1ccccc1-c1nc(-c2cc(Cl)cc(Cl)c2)n2ccccc12 [Compound 21] | < 30%
COC(=O)c1ccc(O)c(-c2nc(-c3ccccc3O)c3ccccn23)c1 [Compound 22, Methyl 4-hydroxy-3-(1-(2-hydroxyphenyl)imidazo[1,5-a]pyridin-3-yl)benzoate] | 30 to 100%
Oc1ccccc1-c1nc(-c2cc(F)cc(F)c2O)n2ccccc12 [Compound 23] | < 30%
Oc1ccccc1-c1nc(-c2c(Cl)cccc2Cl)n2ccccc12 [Compound 24] | < 30%
COC(=O)c1ccc(-c2nc(-c3ccccc3O)c3ccccn23)cc1 [Compound 25] | < 30%
Oc1ccccc1-c1nc(-c2cccc(Cl)c2)n2ccccc12 [Compound 27] | < 30%
Oc1ccccc1-c1nc(-c2ccc(Cl)cc2)n2ccccc12 [Compound 29] | < 30%
Oc1c(F)cccc1-c1nc(-c2cccc(Br)c2O)c2ccccn12 [Compound 31] | < 30%
Oc1c(Cl)cccc1-c1nc(-c2cccc(Br)c2O)c2ccccn12 [Compound 32] | 30 to 100%
Oc1c(F)cc(F)cc1-c1nc(-c2cccc(Br)c2O)c2ccccn12 [Compound 33] | < 30%
Oc1cccc(F)c1-c1nc(-c2cccc(Br)c2O)c2ccccn12 [Compound 34] | 30 to 100%
Oc1cccc(Cl)c1-c1nc(-c2cccc(Br)c2O)c2ccccn12 [Compound 35] | < 30%

SMILES | activation at 20 µM
Oc1ccccc1-c1nc(-c2cccc(F)c2O)c2ccccn12 [Compound 37] | < 30%
Oc1cccc(F)c1-c1nc(-c2cccc(F)c2O)c2ccccn12 [Compound 38] | 30 to 100%
Oc1cccc(Cl)c1-c1nc(-c2cccc(F)c2O)c2ccccn12 [Compound 39] | 30 to 100%
Oc1c(F)cccc1-c1nc(-c2cccc(F)c2O)n2ccccc12 [Compound 40] | 30 to 100%
Oc1c(F)cccc1-c1nc(-c2cccc(Cl)c2O)n2ccccc12 [Compound 41, 2-Chloro-6-(1-(3-fluoro-2-hydroxyphenyl)imidazo[1,5-a]pyridin-3-yl)phenol] | 30 to 100%
Oc1ccc(Cl)cc1-c1nc(-c2cccc(F)c2O)c2ccccn12 [Compound 42] | 30 to 100%
Oc1cc(F)c(Br)cc1-c1nc(-c2cccc(F)c2O)n2ccccc12 [Compound 44] | 30 to 100%
Oc1cc(F)c(Br)cc1-c1nc(-c2c(O)cccc2Cl)n2ccccc12 [Compound 46] | < 30%
Oc1cc(F)ccc1-c1nc(-c2c(O)cccc2F)n2ccccc12 [Compound 49] | < 30%
Oc1cc(F)ccc1-c1nc(-c2cccc(F)c2O)n2ccccc12 [Compound 50] | 30 to 100%
Oc1cc(F)ccc1-c1nc(-c2cc(F)ccc2O)n2ccccc12 [Compound 51] | < 30%
COc1cccnc1-c1nc(-c2c(O)cccc2F)n2ccccc12 [Compound 52] | < 30%
COc1cccnc1-c1nc(-c2cc(F)ccc2O)n2ccccc12 [Compound 56, 4-Fluoro-2-(1-(3-methoxypyridin-2-yl)imidazo[1,5-a]pyridin-3-yl)phenol] | 30 to 100%
COc1cccnc1-c1nc(-c2cc(Cl)cc(Cl)c2O)n2ccccc12 [Compound 59] | < 30%
COc1cccnc1-c1nc(-c2cc(C)ccc2O)n2ccccc12 [Compound 61] | 30 to 100%
Oc1cc(F)ccc1-c1nc(-c2cccc(Cl)c2O)n2ccccc12 [Compound 63] | < 30%
O=[N+]([O-])c1ccccc1-c1nc(-c2ccccc2O)c2ccccn12 [Compound 77] | < 30%
Oc1cccnc1-c1nc(-c2c(O)cccc2F)n2ccccc12 [Compound 79] | 100 to 150%
Oc1cccnc1-c1nc(-c2c(O)cccc2Cl)n2ccccc12 [Compound 80] | 30 to 100%
Oc1cccnc1-c1nc(-c2cccc(F)c2O)n2ccccc12 [Compound 81, 2-(3-(3-Fluoro-2-hydroxyphenyl)imidazo[1,5-a]pyridin-1-yl)pyridin-3-ol] | > 150%
Oc1cccnc1-c1nc(-c2cccc(Cl)c2O)n2ccccc12 [Compound 82] | 30 to 100%

SMILES | activation at 20 µM
Oc1ccc(F)cc1-c1nc(-c2ncccc2O)c2ccccn12 [Compound 83] | 100 to 150%
Oc1cccnc1-c1nc(-c2cc(F)cc(F)c2O)n2ccccc12 [Compound 84, 2-(3-(3,5-Difluoro-2-hydroxyphenyl)imidazo[1,5-a]pyridin-1-yl)pyridin-3-ol] | > 150%
Oc1cccnc1-c1nc(-c2cc(Cl)cc(Cl)c2O)n2ccccc12 [Compound 85] | 30 to 100%
Cc1ccc(O)c(-c2nc(-c3c(O)cccc3F)n3ccccc23)c1 [Compound 87] | < 30%
Oc1ccc(Cl)cc1-c1nc(-c2ncccc2O)c2ccccn12 [Compound 92] | 100 to 150%
Oc1cc(Cl)ccc1-c1nc(-c2ncccc2O)c2ccccn12 [Compound 93] | 30 to 100%
Cc1ccc(O)c(-c2nc(-c3ncccc3O)c3ccccn23)c1 [Compound 94] | 30 to 100%
Oc1ccccc1-c1nc(-c2ncccc2O)n2ccccc12 [Compound 95, 2-(1-(2-Hydroxyphenyl)imidazo[1,5-a]pyridin-3-yl)pyridin-3-ol] | 30 to 100%
Oc1cc(C(F)(F)F)ccc1-c1nc(-c2cccc(F)c2O)n2ccccc12 [Compound 98, 2-(3-(3-Fluoro-2-hydroxyphenyl)imidazo[1,5-a]pyridin-1-yl)-5-(trifluoromethyl)phenol] | < 30%
COc1ccccc1-c1nc(-c2ccc(Cl)cc2O)n2ccc(C)cc12 [Compound 100, 5-Chloro-2-(1-(2-methoxyphenyl)-7-methylimidazo[1,5-a]pyridin-3-yl)phenol] | < 30%
Oc1ccccc1-c1nc(-c2ccccc2O)n2ncccc12 [Compound 102, 2,2′-(Imidazo[1,5-b]pyridazine-5,7-diyl)diphenol] | < 30%
Oc1ccccc1-c1nc(-c2cccc(F)c2O)n2ncccc12 [Compound 103] | 30 to 100%
Oc1ccccc1-c1nc(-c2cccc(Cl)c2O)n2ncccc12 [Compound 104] | < 30%
Oc1ccccc1-c1nc(-c2ccccc2O)n2cccnc12 [Compound 107, 2,2′-(Imidazo[1,5-a]pyrimidine-6,8-diyl)diphenol] | 30 to 100%
Cc1cccc(-c2nc(-c3ccccc3O)c3ncccn23)c1O [Compound 108] | < 30%
Oc1cnccc1-c1nc(-c2ccccc2O)n2ccccc12 [Compound 110] | > 150%
Oc1cnccc1-c1nc(-c2cccc(F)c2O)n2ccccc12 [Compound 111] | 100 to 150%
Oc1cnccc1-c1nc(-c2cccc(Cl)c2O)n2ccccc12 [Compound 112] | 100 to 150%
Oc1cnccc1-c1nc(-c2cc(F)cc(F)c2O)n2ccccc12 [Compound 114, 4-(3-(3,5-Difluoro-2-hydroxyphenyl)imidazo[1,5-a]pyridin-1-yl)pyridin-3-ol] | 100 to 150%
Oc1ccccc1-c1nc(-c2ncccc2O)c2cccnn12 [Compound 120, 2-(7-(2-Hydroxyphenyl)imidazo[1,5-b]pyridazin-5-yl)pyridin-3-ol] | 100 to 150%
